Test results reported in patent US8883782B2, “Spiro-tetracyclic ring compounds as beta-secretase modulators and methods of use” (Amgen Inc., priority 2010, dated 2014).
Read-outs that look alike come from different tables or passages of the source.

Target: Beta Secretase enzyme (BACE) (Homo sapiens, UniProt P56817)
Test: In vitro enzymatic BACE FRET (fluorescence resonance energy transfer) assay
Format: biochemical
Experimental: In Vitro Enzymatic Bace Fret (Fluorescence Resonance Energy Transfer) Assay (Enzyme Assay Data in the Example Table I)
The assay buffer used in this screen is 0.05 M acetate, pH 4.2, 10% DMSO final, 100 uM genapol (which is a nonionic detergent, below its Critical Micelle Concentration). […] This assay is effectively started by the addition of FRET substrate (50 nM) and the combination is incubated for one hour. The FRET assay is terminated with by addition of Tris buffer, which raises the pH to neutrality, and the fluorescence is determined. The FRET substrate is a peptide with commercially available fluorophore and quencher, on opposite sides of the BACE cleavage site.

[1] = average IC50, enzyme assay, read-out: BACE 1 FRET assay

Beta Secretase enzyme (BACE), sequence (P56817 46-501, species assumed): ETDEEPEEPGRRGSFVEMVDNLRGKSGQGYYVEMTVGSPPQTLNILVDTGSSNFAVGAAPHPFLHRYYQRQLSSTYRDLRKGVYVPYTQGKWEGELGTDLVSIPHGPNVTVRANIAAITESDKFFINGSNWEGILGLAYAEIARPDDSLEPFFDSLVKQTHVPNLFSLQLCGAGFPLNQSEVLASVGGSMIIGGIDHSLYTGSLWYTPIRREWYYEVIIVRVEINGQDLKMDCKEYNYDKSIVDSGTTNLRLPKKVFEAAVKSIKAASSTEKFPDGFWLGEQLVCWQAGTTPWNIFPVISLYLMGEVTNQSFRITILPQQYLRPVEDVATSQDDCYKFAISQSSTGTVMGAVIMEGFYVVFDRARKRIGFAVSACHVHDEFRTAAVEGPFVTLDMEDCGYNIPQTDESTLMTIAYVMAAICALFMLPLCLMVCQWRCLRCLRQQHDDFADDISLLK

IC50 [1] [µM]	Molecule	IC50 (BACE 1 FRET assay (uM)) [µM]
0.0103	Cc1ncc(-c2cc3c(cn2)Oc2ccc(-c4cccnc4F)cc2[C@@]32COC(N)=N2)cn1 [Example 546, (5S)-7-(2-fluoro-3-pyridinyl)-3-(2-methyl-5-pyrimidinyl)spiro[chromeno[2,3-c]pyridine-5,4′-[1,3]oxazol]-2′-amine]	
0.0072	NC1=N[C@@]2(CO1)c1cc(-c3cncc(F)c3)ccc1Oc1c(F)cc([C@H]3CCOC3)cc12 [Example 296, (4S)-4′-fluoro-7′-(5-fluoro-3-pyridinyl)-2′-((3R)-tetrahydro-3-furanyl)spiro[1,3-oxazole-4,9′-xanthen]-2-amine]	
0.0478	NC1=N[C@]2(CS1)c1cc(-c3cccc(C4=CCOCC4)c3)ccc1Oc1cnc(C3=CCOCC3)cc12 [Example 596, (5R)-3-(3,6-dihydro-2H-pyran-4-yl)-7-(3-(3,6-dihydro-2H-pyran-4-yl)phenyl)spiro[chromeno[2,3-c]pyridine-5,4′-[1,3]thiazol]-2′-amine]	
0.002	NC1=N[C@@]2(CO1)c1cc(-c3c(F)ccnc3F)ccc1Oc1cnc(-c3ccncc3)cc12 [Example 398, (5S)-7-(2,4-difluoro-3-pyridinyl)-3-(4-pyridinyl)spiro[chromeno[2,3-c]pyridine-5,4′-[1,3]oxazol]-2′-amine]	
0.0023	NC1=N[C@@]2(CO1)c1cc(-c3cccnc3F)ccc1Oc1c(F)cc([C@@H]3CCOC3)cc12 [Example 300, (4S)-4′-fluoro-7′-(2-fluoro-3-pyridinyl)-2′-((3S)-tetrahydro-3-furanyl)spiro[1,3-oxazole-4,9′-xanthen]-2-amine]	
	NC1=N[C@@]2(CO1)c1cc(-c3cccnc3F)ccc1Oc1cnc(N3CCC(F)(F)CC3)cc12 [Example 137, (S)-3-(4,4-difluoropiperidin-1-yl)-7-(2-fluoropyridin-3-yl)-5′H-spiro[chromeno[2,3-c]pyridine-5,4′-oxazol]-2′-amine]	0.0007
	NC1=N[C@@]2(CO1)c1cc(-c3cccnc3F)ccc1Oc1cnc(N3CCC(F)(F)C3)cc12 [Example 140, (S)-3-(3,3-difluoropyrrolidin-1-yl)-7-(2-fluoropyridin-3-yl)-5′H-spiro[chromeno[2,3-c]pyridine-5,4′-oxazol]-2′-amine]	0.0006
0.029	NC1=N[C@@]2(CO1)c1cc(-c3cc(F)cnc3F)ccc1Oc1cnc(-c3ccnc(F)c3)cc12 [Example 549, (5S)-7-(2,5-difluoro-3-pyridinyl)-3-(2-fluoro-4-pyridinyl)spiro[chromeno[2,3-c]pyridine-5,4′-[1,3]oxazol]-2′-amine]	
0.0172	NC1=N[C@@]2(CO1)c1cc(-c3ccccc3)ncc1Oc1c(F)cc(C3=CCOCC3)cc12 [Example 309, (5S)-7-(3,6-dihydro-2H-pyran-4-yl)-9-fluoro-3-phenylspiro[chromeno[2,3-c]pyridine-5,4′-[1,3]oxazol]-2′-amine]	
0.0531	NC1=N[C@@]2(CS1)c1cc(-c3cccnc3F)ccc1Oc1cnc(Cl)cc12 [Example 594, (5S)-3-chloro-7-(2-fluoro-3-pyridinyl)spiro[chromeno[2,3-c]pyridine-5,4′-[1,3]thiazol]-2′-amine]	
0.002	NC1=N[C@@]2(CS1)c1cc(-c3cccnc3F)ccc1Oc1ncc(-c3cccnc3F)cc12 [Example 587, (5S)-3,7-bis (2-fluoro-3-pyridinyl)spiro[chromeno[2,3-b]pyridine-5,4′-[1,3]thiazol]-2′-amine]	
0.002	CC(C)(C#N)COc1cc(F)c2c(c1)[C@]1(COC(N)=N1)c1cc(-c3c(F)ccnc3F)ccc1O2 [Example 566, 3-(((4S)-2-amino-7′-(2,4-difluoro-3-pyridinyl)-4′-fluorospiro[1,3-oxazole-4,9′-xanthen]-2′-yl)oxy)-2,2-dimethylpropanenitrile]	

Molecule	IC50 [1] [µM]	IC50 (BACE 1 FRET assay (uM)) [µM]
(4S)-4′-fluoro-7′-(2-fluoro-3-pyridinyl)-2′-(2-oxa-6-azaspiro[3.4]oct-6-yl)spiro[1,3-oxazole-4,9′-xanthen]-2-amine [Example 857]	< 0.002	
